For one data set, the target named is HCN2 (Homo sapiens (Human), UniProt Q9UL51). The data set is described as follows: HCN2 current assay using PatchXpress 7000A. Format: cell-based. The settings on record: PatchXpress protocol; read-out: PX HCN2 IC50. As for the experimental part: (§1) Example 126A, Using PatchXpress 7000A
(§2) Solutions for recording HCN currents were:
The membrane voltage was then stepped back to −30 mV for a further 8 seconds.
(§3) The peak inward current measured at the end of the pulse to −110 mV (HCN1 and HCN2) or −130 mV (HCN4) was measured and any leak current subtracted to calculate the HCN current. The HCN current amplitude was measured after each control or compound addition and normalized to the control amplitude (Control A).
(§4) All experiments were performed at room temperature (approximately 22° C.).
(§5) Each test compound concentration was applied to the cell for seven (7) minutes, at which point the next cumulative concentration was applied.

For another data set, the target named is HCN4 (Homo sapiens (Human), UniProt Q9Y3Q4). The data set can be described thus: HCN4 current assay using PatchXpress 7000A. The conditions noted are these: PatchXpress protocol; read-out: PX HCN4 IC50. Format: cell-based. The procedure:
as §1, §2, §3, §4, §5

Another data set has as its target hERG channel (Homo sapiens (Human), UniProt Q12809). The data set is described as follows: hERG assay using IonWorks Quattro. The settings on record: IonWorks protocol; read-out: IW hERG IC50. Type of data set: cell-based. The procedure: Example 127A, Using IonWorks Quattro
Solutions for recording hERG currents were:
This was followed by a […] step of is to −30 mV to evoke the hERG tail current. This sequence was repeated 5 times at a frequency of 0.25 Hz (see FIG. 3). Currents were measured from the tail step at the 5th pulse and referenced to the holding current. Compounds were then incubated for 6-7 minutes prior to a second measurement of the hERG signal using an identical pulse train.

The next data set addresses hNav1.5 (Homo sapiens (Human), UniProt Q14524).

Counter-ions that a name gives are not always drawn. Some results are limits rather than exact numbers.

A word on the IC50: it is the concentration at which inhibition is half-maximal.

Sequence of HCN2 (Q9UL51 whole entry): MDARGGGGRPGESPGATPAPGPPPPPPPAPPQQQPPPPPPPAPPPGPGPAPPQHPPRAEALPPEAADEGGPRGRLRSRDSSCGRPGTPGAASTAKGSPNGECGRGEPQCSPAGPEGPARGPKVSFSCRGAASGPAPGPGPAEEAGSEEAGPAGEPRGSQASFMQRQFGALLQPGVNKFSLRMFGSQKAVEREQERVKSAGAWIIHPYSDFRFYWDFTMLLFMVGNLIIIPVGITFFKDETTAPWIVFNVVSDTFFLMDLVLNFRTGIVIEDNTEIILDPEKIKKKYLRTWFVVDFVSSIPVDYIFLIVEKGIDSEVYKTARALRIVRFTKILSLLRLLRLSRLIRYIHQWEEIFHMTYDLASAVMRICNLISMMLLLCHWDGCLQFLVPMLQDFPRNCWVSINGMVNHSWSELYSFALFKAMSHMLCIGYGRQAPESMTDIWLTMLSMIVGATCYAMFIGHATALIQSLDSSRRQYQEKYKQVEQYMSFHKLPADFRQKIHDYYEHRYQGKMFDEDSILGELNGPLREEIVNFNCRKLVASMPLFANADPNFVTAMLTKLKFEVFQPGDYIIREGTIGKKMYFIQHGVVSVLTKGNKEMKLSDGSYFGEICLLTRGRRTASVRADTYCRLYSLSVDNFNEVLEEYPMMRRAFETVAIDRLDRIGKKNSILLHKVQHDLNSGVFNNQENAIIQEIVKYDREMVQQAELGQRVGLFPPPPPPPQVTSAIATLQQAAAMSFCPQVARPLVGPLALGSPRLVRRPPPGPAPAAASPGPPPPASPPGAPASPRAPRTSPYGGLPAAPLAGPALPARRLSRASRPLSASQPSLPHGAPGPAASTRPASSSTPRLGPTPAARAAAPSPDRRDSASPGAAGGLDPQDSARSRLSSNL
Sequence of hERG channel (Q12809 whole entry): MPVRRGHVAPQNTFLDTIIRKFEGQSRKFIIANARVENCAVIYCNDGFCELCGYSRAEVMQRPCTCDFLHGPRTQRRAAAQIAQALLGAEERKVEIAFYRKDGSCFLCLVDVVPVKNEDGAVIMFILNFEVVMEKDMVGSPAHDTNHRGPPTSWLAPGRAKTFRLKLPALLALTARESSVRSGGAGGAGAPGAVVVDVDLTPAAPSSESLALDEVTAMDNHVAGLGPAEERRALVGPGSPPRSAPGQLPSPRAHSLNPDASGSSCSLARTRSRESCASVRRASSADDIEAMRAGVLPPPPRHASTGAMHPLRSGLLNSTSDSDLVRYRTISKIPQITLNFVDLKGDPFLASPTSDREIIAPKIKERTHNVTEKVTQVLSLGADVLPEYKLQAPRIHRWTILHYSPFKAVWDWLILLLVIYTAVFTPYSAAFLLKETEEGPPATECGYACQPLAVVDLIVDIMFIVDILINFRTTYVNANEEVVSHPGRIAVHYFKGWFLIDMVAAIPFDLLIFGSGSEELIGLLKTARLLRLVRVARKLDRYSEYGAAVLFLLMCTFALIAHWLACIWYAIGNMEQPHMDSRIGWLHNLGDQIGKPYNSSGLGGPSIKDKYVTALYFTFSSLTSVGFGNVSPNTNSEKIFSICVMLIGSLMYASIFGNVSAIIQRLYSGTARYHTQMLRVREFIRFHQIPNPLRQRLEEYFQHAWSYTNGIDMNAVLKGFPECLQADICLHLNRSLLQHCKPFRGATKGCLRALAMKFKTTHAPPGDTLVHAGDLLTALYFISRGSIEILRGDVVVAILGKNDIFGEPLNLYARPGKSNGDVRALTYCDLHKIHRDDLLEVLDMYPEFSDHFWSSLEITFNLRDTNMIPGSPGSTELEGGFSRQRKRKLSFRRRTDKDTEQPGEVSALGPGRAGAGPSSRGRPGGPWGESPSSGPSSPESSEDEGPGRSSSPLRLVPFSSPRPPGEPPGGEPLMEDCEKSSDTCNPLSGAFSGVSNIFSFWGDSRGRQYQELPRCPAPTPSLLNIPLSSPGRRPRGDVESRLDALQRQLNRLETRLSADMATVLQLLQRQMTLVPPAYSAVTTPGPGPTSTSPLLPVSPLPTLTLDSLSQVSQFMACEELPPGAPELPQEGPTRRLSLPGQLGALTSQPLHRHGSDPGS
Sequence of hNav1.5 (Q14524 whole entry): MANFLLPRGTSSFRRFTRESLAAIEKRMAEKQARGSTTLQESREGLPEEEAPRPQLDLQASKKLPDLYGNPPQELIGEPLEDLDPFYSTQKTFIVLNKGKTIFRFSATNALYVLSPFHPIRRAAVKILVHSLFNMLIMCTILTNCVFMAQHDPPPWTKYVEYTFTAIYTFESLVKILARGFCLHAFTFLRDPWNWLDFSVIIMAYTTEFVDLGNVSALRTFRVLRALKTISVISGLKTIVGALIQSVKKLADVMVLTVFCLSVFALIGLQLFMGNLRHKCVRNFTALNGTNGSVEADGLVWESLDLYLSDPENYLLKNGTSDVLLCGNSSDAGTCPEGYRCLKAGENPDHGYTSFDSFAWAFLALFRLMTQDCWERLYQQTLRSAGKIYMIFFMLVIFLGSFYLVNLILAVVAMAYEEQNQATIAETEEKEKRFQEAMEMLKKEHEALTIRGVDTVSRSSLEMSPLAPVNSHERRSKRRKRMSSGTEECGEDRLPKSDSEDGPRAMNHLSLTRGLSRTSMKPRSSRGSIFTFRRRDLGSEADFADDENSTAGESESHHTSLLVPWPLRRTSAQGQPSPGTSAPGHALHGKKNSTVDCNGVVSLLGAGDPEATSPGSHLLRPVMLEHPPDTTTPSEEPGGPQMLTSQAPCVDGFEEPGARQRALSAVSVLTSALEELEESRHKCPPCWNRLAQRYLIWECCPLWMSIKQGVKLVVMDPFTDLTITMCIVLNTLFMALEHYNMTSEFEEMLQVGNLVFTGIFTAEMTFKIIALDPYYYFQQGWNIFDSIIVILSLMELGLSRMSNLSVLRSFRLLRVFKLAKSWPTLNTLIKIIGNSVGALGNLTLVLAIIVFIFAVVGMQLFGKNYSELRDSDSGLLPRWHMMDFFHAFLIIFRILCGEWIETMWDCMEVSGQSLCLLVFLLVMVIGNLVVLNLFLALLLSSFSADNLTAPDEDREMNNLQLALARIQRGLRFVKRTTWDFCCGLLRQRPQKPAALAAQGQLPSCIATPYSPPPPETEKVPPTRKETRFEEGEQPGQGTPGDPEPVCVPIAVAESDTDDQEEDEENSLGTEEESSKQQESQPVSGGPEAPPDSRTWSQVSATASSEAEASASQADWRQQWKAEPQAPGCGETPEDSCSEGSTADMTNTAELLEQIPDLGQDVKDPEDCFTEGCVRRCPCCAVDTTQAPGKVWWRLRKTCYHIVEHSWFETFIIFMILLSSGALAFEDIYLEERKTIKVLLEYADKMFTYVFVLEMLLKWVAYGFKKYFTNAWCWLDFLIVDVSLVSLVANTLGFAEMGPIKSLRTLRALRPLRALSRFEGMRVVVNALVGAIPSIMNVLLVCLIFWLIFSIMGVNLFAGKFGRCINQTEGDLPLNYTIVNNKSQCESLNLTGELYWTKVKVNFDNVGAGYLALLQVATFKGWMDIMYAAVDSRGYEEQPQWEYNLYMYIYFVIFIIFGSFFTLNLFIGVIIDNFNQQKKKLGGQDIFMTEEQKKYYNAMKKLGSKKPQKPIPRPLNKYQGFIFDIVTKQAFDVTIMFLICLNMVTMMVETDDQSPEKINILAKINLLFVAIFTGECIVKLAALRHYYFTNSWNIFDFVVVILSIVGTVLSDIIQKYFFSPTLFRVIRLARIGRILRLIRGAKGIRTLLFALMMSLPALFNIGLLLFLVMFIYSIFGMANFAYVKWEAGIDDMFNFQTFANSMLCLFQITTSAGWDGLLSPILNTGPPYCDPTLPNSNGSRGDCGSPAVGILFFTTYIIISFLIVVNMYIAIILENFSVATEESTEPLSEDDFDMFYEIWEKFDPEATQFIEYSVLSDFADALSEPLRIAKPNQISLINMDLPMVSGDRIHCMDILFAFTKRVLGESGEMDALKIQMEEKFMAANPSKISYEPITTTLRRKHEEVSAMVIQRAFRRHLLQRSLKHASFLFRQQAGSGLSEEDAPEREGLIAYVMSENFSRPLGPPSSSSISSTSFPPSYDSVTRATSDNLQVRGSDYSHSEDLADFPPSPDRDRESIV

On to `Cc1cccc(C[C@H](N)c2c(F)cccc2-c2noc3ccccc23)n1` [Example 112, (S)-1-[2-(Benzo[d]isoxazol-3-yl)-6-fluorophenyl]-2-(6-methylpyridin-2-yl)ethan-1-amine hydrochloride], for which the IC50 at HCN2 stood at 2 µM; on HCN4 it was 4.2 µM; on hERG channel, 10.2 µM; on hNav1.5 it was 24.2 µM.
In the case of `N[C@@H](Cc1cccc(N2CC[C@@H](O)C2)n1)c1ccccc1-c1noc2ccccc12` [Example 50, (R)-1-(6-{(S)-2-Amino-2-[2-(benzo[d]isoxazol-3-yl)phenyl]ethyl}pyridine-2-yl)pyrrolidin-3-ol hydrochloride], the IC50 at HCN2 is 5.6 µM; at HCN4 it was 4.9 µM.
The like results for `CC(C)n1nc(-c2ccccc2[C@@H](N)Cc2ccccn2)c2ccccc21` [Example 65, (S)-1-[2-(1-isopropyl-1H-indazole-3-yl)phenyl]-2-(pyridine-2-yl)ethan-1-amine hydrochloride] were, in that order, 1.1 µM and 5.1 µM.
In the case of `N[C@@H](Cc1nc(-c2cn[nH]c2)ccc1F)c1ccccc1-c1noc2ccccc12` [Example 78, (S)-1-[2-(Benzo[d]isoxazol-3-yl)phenyl]-2-[3-fluoro-6-(1H-pyrazol-4-yl)pyridin-2-yl)ethan-1-amine hydrochloride], the values for the IC50 on HCN4, at hERG channel and on hNav1.5 were 8.3 µM, 7.6 µM and 6.4 µM, respectively.
As to `CC(c1ccccn1)C(N)c1ccccc1-c1noc2ccccc12` (single isomer, unassigned; diastereomer 3) [Example 3, 1-[2-(Benzo[d]isoxazol-3-yl)phenyl]-2-(pyridin-2-yl)propan-1-amine hydrochloride (diastereomer 3)], the IC50 was 2.3 µM on HCN2 and over 30 µM on HCN4.
With `N#Cc1cccc(C[C@H](N)c2c(F)cccc2-c2noc3ccccc23)n1` [Example 110, (S)-6-{2-Amino-2-[2-(benzo[d]isoxazol-3-yl)-6-fluorophenyl]ethyl}-2-cyanopyridine hydrochloride], the IC50 on HCN2 is 2.6 µM; at HCN4, 15.1 µM; on hNav1.5, over 33 µM.
For `N[C@@H](Cc1ccc(Br)cn1)c1ccccc1-c1noc2ccccc12` [Example 88, (S)-1-[2-(Benzo[d]isoxazol-3-yl)phenyl]-2-(5-bromopyridine-2-yl)ethan-1-amine hydrochloride], the concentration for half-maximal inhibition (IC50) on HCN2 was 2.7 µM; at HCN4, over 30 µM.
The matching figures for `N[C@@H](Cc1cccc(CO)n1)c1ccccc1-c1noc2ccccc12` [Example 98, (S)-1-[2-(Benzo[d]isoxazol-3-yl)phenyl]-2-(6-hydroxymethylpyridine-2-yl)ethan-1-amine hydrochloride]: 2 µM and 13.2 µM.
The like results for `N[C@@H](Cc1cccc(C(=O)NCC2CC2)n1)c1ccccc1-c1noc2ccccc12` [Example 107, (S)-6-{2-Amino-2-[2-(benzo[d]isoxazol-3-yl)phenyl]ethyl}-N-(cyclopropylmethylpyridine-2-carboxamide hydrochloride] were, in that order, 1.4 µM and 3.2 µM.
Turning to `CN(CCO)c1cccc(C[C@H](N)c2ccccc2-c2noc3ccccc23)n1` [Example 55, (S)-2-[(6-{(S)-2-Amino-2-[2-(benzo[d]isoxazol-3-yl)phenyl]ethyl}pyridine-2-yl)(methyl)amino]ethan-1-ol hydrochloride], the IC50 came out at 0.8 µM on HCN2 and 2 µM at HCN4.
The matching figures for `N[C@@H](Cc1ccccn1)c1c(Br)cccc1-c1noc2ccccc12` [Example 87, (S)-1-[2-(Benzo[d]isoxazol-3-yl)-6-bromophenyl]-2-(pyridine-2-yl)ethan-1-amine hydrochloride]: 1.7 µM and 18.8 µM.
The like results for `Cc1cccc(C[C@H](N)c2ccccc2-c2nn(C(C)C)c3ccccc23)n1` [Example 66, (S)-1-[2-(1-Isopropyl-1H-indazole-3-yl)phenyl]-2-(6-methylpyridine-2-yl)ethan-1-amine hydrochloride] were, in that order, 0.9 µM and 6.8 µM.
For `N[C@@H](Cc1ccccn1)c1ccccc1-c1noc2cc(CCO)ccc12` [Example 40, (S)-1-[2-(6-[2-Hydroxyethyl]benzo[d]isoxazol-3-yl)phenyl]-2-(pyridine-2-yl)ethan-1-amine], the IC50 on HCN2 is 15.6 µM; at hERG channel, 7.8 µM; against hNav1.5 it was over 33 µM.
`COCCNC(=O)c1cccc(C[C@H](N)c2ccccc2-c2noc3ccccc23)n1` [Example 108, (S)-6-{2-[Amino-2-(benzo[d]isoxazol-3-yl)phenyl]ethyl}-N-(2-methoxyethyl)pyridine-2-carboxamide hydrochloride]: the IC50 was found to be 3.5 µM on HCN2 and 5.1 µM on HCN4.
The matching figures for `N[C@@H](Cc1ccccn1)c1cc(Br)ccc1-c1noc2ccccc12` [Example 83, (S)-1-[2-(benzo[d]isoxazol-3-yl)-5-bromophenyl]-2-(pyridine-2-yl)ethan-1-amine]: 1.8 µM and over 30 µM.
In the case of `N#Cc1ccc(C[C@H](N)c2ccccc2-c2noc3cc(Br)ccc23)nc1` [Example 81, (S)-1-[2-(6-Bromobenzo[d]isoxazol-3-yl)phenyl]-2-(5-cyanopyridine-2-yl)ethan-1-amine], the concentration for half-maximal inhibition (IC50) is 10.8 µM on HCN2 and over 30 µM on HCN4.
The matching figures for `Cc1ccc(C#N)nc1C[C@H](N)c1ccccc1-c1noc2ccccc12` [Example 58, (S)-1-[2-(Benzo[d]isoxazol-3-yl)phenyl]-2-(6-cyano-3-methylpyridin-2-yl)ethan-1-amine]: 0.5 µM and 7.2 µM.
The like results for `CC(C)n1nc(-c2ccccc2[C@@H](N)Cc2cccc(Br)n2)c2ccccc21` [Example 64, (S)-2-(6-Bromopyridine-2-yl)-1-[2-(1-isopropyl-1H-indazole-3-yl)phenyl]ethan-1-amine hydrochloride] were, in that order, 1.3 µM and 6.4 µM.
The like results for `N[C@@H](Cc1cccc(C(=O)N2CCOCC2)n1)c1ccccc1-c1noc2ccccc12` [Example 106, (S)-(6-{2-Amino-2-[2-(benzo[d]isoxazol-3-yl)phenyl]ethyl}pyridine-2-yl)(morpholino)methanone hydrochloride] were, in that order, 8.5 µM and over 30 µM.
On to `Cc1noc(C)c1-c1cccc(C[C@H](N)c2ccccc2-c2noc3ccccc23)n1` [Example 94, (S)-1-[2-(Benzo[d]isoxazol-3-yl)phenyl]-2-[6-(3,5-dimethylisoxazol-4-yl)pyridine-2-yl)-ethan-1-amine hydrochloride], for which the half-maximal inhibitory concentration (IC50) amounted to 1.2 µM on HCN2 and 4.7 µM at HCN4.
As to `CS(=O)(=O)Nc1cccc(C[C@H](N)c2ccccc2-c2noc3ccccc23)n1` [Example 123, (S)—N-(6-{2-Amino-2-[2-(benzo[d]isoxazol-3-yl)phenyl]ethyl}pyridine-2-yl)methanesulfonamide hydrochloride], the figures for the half-maximal inhibitory concentration (IC50) at HCN2 and at HCN4 were 5.9 µM and over 30 µM, respectively.
The like results for `Cc1ccc(Br)nc1C[C@H](N)c1ccccc1-c1noc2ccccc12` [Example 57, (S)-1-[2-(Benzo[d]isoxazol-3-yl)phenyl]-2-(6-bromo-3-methylpyridin-2-yl)ethan-1-amine hydrochloride] were, in that order, 0.6 µM and 2.4 µM.
The matching figures for `N[C@@H](Cc1cccc(N2CCOCC2)n1)c1ccccc1-c1noc2ccccc12` [Example 54, (S)-1-[2-(Benzo[d]isoxazol-3-yl)phenyl]-2-(6-morpholinopyridine-2-yl)ethane-1-amine hydrochloride]: 1 µM and 2.1 µM.
The like results for `CS(=O)(=O)c1cccc(C[C@H](N)c2ccccc2-c2noc3ccccc23)n1` [Example 103, (S)-1-[2-(Benzo[d]isoxazol-3-yl)phenyl]-2-[6-(methylsulfonyl)pyridin-2-yl]ethan-1-amine] were, in that order, 3 µM and 22.4 µM.
Regarding `Cc1ccc(C)c(C[C@H](N)c2ccccc2-c2noc3ccccc23)n1` [Example 59, (S)-1-[2-(benzo[d]isoxazol-3-yl)phenyl]-2(6-vinylpyridin-2-yl)ehtan-1-amine], the figures for the 50% inhibitory concentration (IC50) at HCN2 and on HCN4 were 0.9 µM and 6.8 µM, respectively.
The like results for `COCCN(C)c1cccc(C[C@H](N)c2ccccc2-c2noc3ccccc23)n1` [Example 51, (S)-6-{2-Amino-2-[2-(benzo[d]isoxazol-3-yl)phenyl]ethyl}-N-(2-methoxyethyl)-N-methyl pyridin-2-amine hydrochloride] were, in that order, 1.7 µM and 3.4 µM.
The like results for `CC(c1ccccn1)C(N)c1ccccc1-c1noc2ccccc12` (single isomer, unassigned; diastereomer 2) [Example 2, 1-[2-(Benzo[d]isoxazol-3-yl)phenyl]-2-(pyridin-2-yl)propan-1-amine hydrochloride (diastereomer 2)] were, in that order, 0.96 µM and over 30 µM.

For the origin of these results see US20240190854A1, “PYRIMIDINE OR PYRIDINE DERIVATIVES USEFUL AS HCN2 MODULATORS” (King's College London, priority 2021, published 2024).
